# Laboratory results reported in paper PMC4504433 (ACS Chemical Biology, 2014).
# Tested on: H3K79me2 in A431 cells
# Assay: High content imaging assay of H3K79me2
# Conditions: 4 days
smiles,measurement,value
Nc1ncnc2c1ncn2[C@@H]1O[C@H](CSCC[C@H](N)C(=O)O)[C@@H](O)[C@H]1O [SAH],"reduction of H3K79 methylation, result in words",ineffective
